Reference: the supplement of paper PMC10307832

Compound: CCc1cnn2c(NCc3ccc[n+]([O-])c3)cc(N3CCCC[C@H]3CCO)nc12 [Dinaciclib]
Assay: relative viability (nuclei count vs DMSO), 5 days (fraction); higher = more cells survive
How it was run: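 A plate was accepted only when its control CV was below 25% and the cells had doubled at least once. Viability is defined from nuclear counts as treated wells divided by vehicle wells, with the median taken across plates. That median covers lung cancer cell lines grown in 1536-well plates, dosed by pinning at five √10-spaced library-drug concentrations, and counted in MetaXpress from 4× Hoechst images after 5 days.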

Cell Line	relative viability (0.009487 µM)	relative viability (0.03 µM)	relative viability (0.09487 µM)	relative viability (0.3 µM)
201T	1.09	0.632	0.339	0.236
A549	0.968	0.32	0.0405	0.046
A-427	0.828	0.144	0.084	0.0857
ABC-1	0.757	0.237	0.165	0.116
BEN	1.06	0.812	0.214	0.257
CAL-12T	0.479	0.163	0.121	0.137
COR-L23	0.891	0.162	0.0991	0.103
COR-L 105	0.599	0.285	0.264	0.29
ChaGo-K-1	0.95	0.246	0.203	0.146
EKVX	0.996	0.601	0.184	0.13
EMC-BAC-2	0.951	0.413	0.224	0.197
EPLC-272H	0.855	0.0817	0.0396	0.0347
H3255	0.928	0.56	0.219	0.196
HARA	0.912	0.18	0.088	0.0759
HCC-15	0.772	0.154	0.114	0.114
HCC-44	0.973	0.443	0.176	0.147
HCC-78	0.914	0.326	0.175	0.199
HCC-366	1.01	0.107	0.0385	0.0363
HCC-827	1.1	0.85	0.188	0.168
HOP-62	0.957	0.474	0.0898	0.0943
LC-2-ad	0.917	0.18	0.145	0.129
LCLC-97TM1	0.506	0.134	0.0776	0.0861
LCLC-103H	1.03	0.855	0.204	0.146
LK-2	0.888	0.193	0.177	0.151
LOU-NH91	0.958	0.311	0.261	0.269

Cell Line	relative viability (0.009487 µM)	relative viability (0.03 µM)	relative viability (0.09487 µM)	relative viability (0.3 µM)
LU99A	0.838	0.199	0.139	0.133
LXF-289	1.07	0.924	0.134	0.101
NCI-H23	0.633	0.176	0.109	0.126
NCI-H322M	0.721	0.333	0.289	0.258
NCI-H358	0.785	0.153	0.104	0.131
NCI-H441	1.13	0.162	0.146	0.158
NCI-H460	0.885	0.0593	0.0265	0.0308
NCI-H520	0.915	0.276	0.155	0.18
NCI-H522	0.948	0.72	0.353	0.296
NCI-H596	0.977	0.846	0.261	0.18
NCI-H647	0.713	0.0972	0.0714	0.0765
NCI-H650	0.874	0.21	0.159	0.137
NCI-H661	1.03	0.246	0.201	0.19
NCI-H727	0.975	0.411	0.222	0.245
NCI-H838	0.88	0.173	0.128	0.137
NCI-H1355	1.08	0.681	0.214	0.151
NCI-H1395	0.637	0.308	0.263	0.272
NCI-H1437	0.894	0.227	0.17	0.154
NCI-H1650	0.943	0.174	0.134	0.148
NCI-H1651	0.969	0.764	0.186	0.0892
NCI-H1666	0.896	0.485	0.376	0.345
NCI-H1703	1.16	0.531	0.104	0.118
NCI-H1734	0.824	0.145	0.133	0.14
NCI-H1755	1.01	0.894	0.257	0.266
NCI-H1792	1.01	0.358	0.117	0.0792

Cell Line	relative viability (0.009487 µM)	relative viability (0.03 µM)	relative viability (0.09487 µM)	relative viability (0.3 µM)
NCI-H1793	0.78	0.227	0.152	0.138
NCI-H1915	0.69	0.202	0.159	0.12
NCI-H1944	0.971	0.166	0.141	0.149
NCI-H1975	0.969	0.442	0.164	0.144
NCI-H1993	0.861	0.631	0.483	0.485
NCI-H2009	0.937	0.179	0.109	0.1
NCI-H2023	0.706	0.0772	0.0615	0.0696
NCI-H2085	1.07	0.685	0.27	0.268
NCI-H2087	0.954	0.14	0.111	0.122
NCI-H2126	1.03	0.563	0.247	0.207
NCI-H2170	0.942	0.24	0.171	0.156
NCI-H2228	1.21	0.434	0.123	0.161
NCI-H2342	1.11	0.696	0.368	0.301
NCI-H2347	1.01	0.538	0.257	0.214
NCI-H2405	0.947	0.405	0.246	0.23
NCI-H3122	0.979	0.182	0.115	0.102
PC-3 [JPC-3]	1.05	0.92	0.4	0.266
PC-14	0.766	0.163	0.0662	0.0529
RERF-LC-KJ	1.01	0.29	0.176	0.156
SK-LU-1	1.09	0.227	0.192	0.196
SK-MES-1	1.04	0.295	0.163	0.15
SW 1573	0.83	0.133	0.0862	0.081
UMC-11	0.405	0.204	0.179	0.196
